Type in all cases: ADME
A short description of series [1]: Half-life period in 95% ethanol in dark at 28 degrees celsius.
Series [2] in a line: Half-life period in 95% ethanol in diffuse laboratory light at 28 degrees celsius.
Series [3] in a line: Half-life period in 95% ethanol in diffuse laboratory light at 28 degrees celsius.
Series [4] can be described thus: Half-life period in phosphate buffer at pH 7.4 in the dark at 28 degrees celsius.

The structures appear in SMILES notation. Where only a bound is given, the exact number is not on record here.

On to `Cc1ccc(-n2nnc3c(C(N)=O)ncn3c2=O)cc1`, for which the half-life is 40 min in series [1] and 7.5 min in series [2].

For the compound `NC(=O)c1ncn2c(=O)n(-c3cccc4ccccc34)nnc12`, the half-life in series [1] came out at 4.6 min.

As for `Cn1nnc2c(C(N)=O)ncn2c1=O` [TEMOZOLOMIDE], the half-life in series [1] and in series [3] was 495 min each time.

For `COc1ccc(-n2nnc3c(C(N)=O)ncn3c2=O)cc1`, the half-life in series [1] was 69 min; in series [2], 8.5 min; in series [4], 155 min.

For the compound `NC(=O)c1ncn2c(=O)n(-c3ccc(Cl)cc3)nnc12`, the half-life in series [1] worked out at 6.3 min; in series [2], 8.2 min; in series [4], 2.9 min.

Take `CCOc1ccc(-n2nnc3c(C(N)=O)ncn3c2=O)cc1`: the half-life worked out at 78 min in series [1] and 8 min in series [2].

For `NC(=O)c1ncn2c(=O)n(-c3ccccc3)nnc12`, the half-life in series [1] stood at 23 min; in series [2], 9 min.

`N#Cc1cccc(-n2nnc3c(C(N)=O)ncn3c2=O)c1` returned a half-life in series [1] of 2.6 min.

For the compound `NC(=O)c1ncn2c(=O)n(-c3ccc([N+](=O)[O-])cc3)nnc12`, in series [1], the half-life was under 1 min.

For the compound `CCCn1nnc2c(C(N)=O)ncn2c1=O`, the half-life in series [1] and in series [2] was 155 min throughout.

The record behind these values is ChEMBL document CHEMBL1122784, “Antitumor imidazotetrazines. 1. Synthesis and chemistry of 8-carbamoyl-3-(2-chloroethyl)imidazo[5,1-d]-1,2,3,5-tetrazin-4(3 H)-one , a novel broad-spectrum antitumor agent” (J Med Chem, 1984).
